# According to patent publication US20230190760A1, “ADVANTAGEOUS THERAPIES FOR DISORDERS MEDIATED BY IKAROS OR AIOLOS” (C4 Therapeutics, Inc., priority 2020, published 2023):
# Key:
# [1] = tested on: RPMI-8226 multiple myeloma tumors; conditions: Compound 1 10 μg/kg PO daily, Dexamethasone 5000 μg/kg IV once a week, Combination
# Protocol: A xenograft study was conducted in female CB17 SCID mice bearing RPMI-8226 multiple myeloma tumors. Female SCID mice were inoculated subcutaneously in the right flank with 10×10^6 tumors cells in 0.2 mL of PBS supplemented with matrigel (PBS:matrigel=1:1). Tumor volume was measured twice weekly in two dimensions using calipers, and volume was calculated using the formula: (w2×l)/2=mm^3, assuming 1 mg is equivalent to 1 mm^3 of tumor volume. […] Treatment began on Day 0 with established subcutaneous RPMI-8226 tumors with a mean tumor volume (MTV) of 130 mm^3.
# All agents were administered to mice bearing RPMI-8226 tumors on day 0 and dosed until an individual moue tumor volume reached or exceeded 1000 mm^3, at which point the mouse was removed from the study and dosing stopped. […] Dexamethasone was dosed IV once a week at 5000 μg/kg and formulated in saline. […] Body weight and MTV were measured on a 2× weekly schedule. The study end point was reaching a TV greater than 1000 mm^3, at which point any mouse with a TV reaching this cut off TV was removed from the study. […] The survival analysis used was Logrank (Mantel-Cox test). Data are expressed as MTV±SEM.
# [2] = tested on: NCIH929.1 cells; test: NCIH929.1 cell viability assay (CellTiter-Glo, GI50); format: cell-based; conditions: 96 hr
# [3] = Plasma PK and interconversion in rat; format: in vivo; conditions: Compound 1 30 mg/kg PO
# Protocol: (§1) Compound 1 was administered to a rat at a concentration of 30 mg/kg PO and monkeys at a concentration of either 60 μg/kg or 100 μg/kg PO. At the indicated timepoints shown in FIG. 25A and FIG. 25B, plasma samples were collected and the Cmax, half-life, and AUC0-inf were determined for both Compound 1 and a metabolite of Compound 1, Compound 14. The percent of Compound 14 was also determined (Table 13). PK values dose normalized to 1 mg/kg. FIG. 25A is a graph measuring the concentration of Compound 1 or Compound 14 over the course of 24 hours in monkeys administered 100 μg/kg or 60 μg/kg of Compound 1. FIG. 25B is a graph measuring the concentration of Compound 1 or Compound 14 over the course of 24 hours in a rat administered 30 mg/kg of Compound 1.
# [4] = Plasma PK and interconversion in monkeys; format: in vivo; conditions: monkey, Compound 1 60 μg/kg or 100 μg/kg PO, dose normalized to 1 mg/kg
# Protocol: as §1
# [5] = tested on: r/r subjects with MCL; conditions: r/r MCL following bortezomib; cited from earlier work
# [6] = tested on: TMD8 DLBCL tumors; conditions: Compound 1 50 μg/kg, Ibrutinib 12500 μg/kg, Combination of both; PO daily
# Protocol: A xenograft study was conducted in female CB17 SCID mice bearing TMD8 DLBCL tumors. Female SCID mice were inoculated subcutaneously in the right flank with 5×10^6 tumors cells in 0.2 mL of PBS supplemented with matrigel (PBS:matrigel=1:1). Tumor volume was measured twice weekly in two dimensions using calipers, and volume was calculated using the formula: (w2×l)/2=mm^3, assuming 1 mg is equivalent to 1 mm^3 of tumor volume. […] Treatment began on Day 0 with established subcutaneous TMD8 tumors with a mean tumor volume (MTV) of 107-108 mm^3.
# All agents were administered to mice bearing TMD8 tumors on day 0 and dosed PO daily until individual tumor volumes reached or exceeded 1500 mm^3, at which point dosing stopped and the individual mouse was removed from the study. Compound 1 was dosed at 50 μg/kg and was formulated in PEG400 (30% v/v)+70% v/v HPMC (1% w/v) in citrate buffer (pH 5). Ibrutinib was dosed at 12.5 mg/kg and formulated in 0.5% MC+0.4% cremophor EL+0.1% sodium lauryl sulfate. Compound 1 was also dosed in combination with Ibrutinib at their respective single agent doses. Body weight and MTV was measured on a 2× weekly schedule and the study end point was when all mice were removed from the study on day 54. Statistical analysis was performed using survival analysis and the Logrank test (Mantel-Cox test). Data are expressed as MTV±SEM.
SMILES,GI50 [2],further results
"C[C@@H]1C[C@H]2[C@@H]3CCC4=CC(=O)C=C[C@]4(C)[C@@]3(F)[C@@H](O)C[C@]2(C)[C@@]1(O)C(=O)CO [Dexamethasone, reference compound]",,Median Survival [1]: 30
"N#Cc1ccc(N2CCN(Cc3ccc(Cc4ccc5c6c(cccc46)C(=O)N5C4CCC(=O)NC4=O)cc3)CC2)c(F)c1 (centres unmarked) [Compound 4, 4-(4-(4-((1-(2,6-dioxopiperidin-3-yl)-2-oxo-1,2-dihydrobenzo[cd]indol-6-yl)methyl)benzyl)piperazin-1-yl)-3-fluorobenzonitrile]",20.1 pM,
"O=C1CC[C@H](N2C(=O)c3cccc4c(Cc5ccc(CN6CCC7(CCCO7)CC6)cc5)ccc2c34)C(=O)N1 (single isomer, unassigned) [Compound 12]",10.7 pM,
"CC(C)(C)CN1CCC(C)(n2cc(Cc3ccc4c5c(cccc35)C(=O)N4C3CCC(=O)NC3=O)cn2)CC1 (centres unmarked) [Compound 10, 3-(6-((1-(4-methyl-1-neopentylpiperidin-4-yl)-1H-pyrazol-4-yl)methyl)-2-oxobenzo[cd]indol-1(2H)-yl)piperidine-2,6-dione]",62.1 pM,
"O=C1CCC(N2C(=O)c3cccc4c(Cc5cnn(C6CCN(CC7(F)CC7)CC6)c5)ccc2c34)C(=O)N1 (centres unmarked) [Compound 13, 3-(6-((1-(1-((1-fluorocyclopropyl)methyl)piperidin-4-yl)-1H-pyrazol-4-yl)methyl)-2-oxobenzo[cd]indol-1(2H)-yl)piperidine-2,6-dione]",155 pM,
"CC1(CN2CCC(n3cc(Cc4ccc5c6c(cccc46)C(=O)N5C4CCC(=O)NC4=O)cn3)CC2)CC1 (centres unmarked) [Compound 7, 3-(6-((1-(1-((1-methylcyclopropyl)methyl)piperidin-4-yl)-1H-pyrazol-4-yl)methyl)-2-oxobenzo[cd]indol-1(2H)-yl)piperidine-2,6-dione]",15.9 pM,
"O=C1CCC(N2C(=O)c3cccc4c(Cc5ccc(CN6CCN(c7ccccc7F)CC6)cc5)ccc2c34)C(=O)N1 (centres unmarked) [Compound 3, 3-(6-(4-((4-(2-fluorophenyl)piperazin-1-yl)methyl)benzyl)-2-oxobenzo[cd]indol-1(2H)-yl)piperidine-2,6-dione]",40.9 pM,
O=C1CC[C@@H](N2C(=O)c3cccc4c(Cc5ccc(CN6CCOCC6)cc5)ccc2c34)C(=O)N1 [Compound 14],,AUC(0-inf) ([3]; dose normalized to 1 mg/kg): 47 ng·h/mL; Cmax ([3]; dose normalized to 1 mg/kg): 6 ng/mL; half-life ([3]; read-out: T ½ (converted)): 2.7 h; Cmax [4]: 5 ng/mL
"CC1(C(=O)N2CCC(C)(n3cc(Cc4ccc5c6c(cccc46)C(=O)N5C4CCC(=O)NC4=O)cn3)CC2)CCC1 (centres unmarked) [Compound 6, 3-(6-((1-(4-methyl-1-(1-methylcyclobutane-1-carbonyl)piperidin-4-yl)-1H-pyrazol-4-yl)methyl)-2-oxobenzo[cd]indol-1(2H)-yl)piperidine-2,6-dione]",14.6 pM,
"CC(C)(C)CN1CCC(n2cc(Cc3ccc4c5c(cccc35)C(=O)N4C3CCC(=O)NC3=O)cn2)CC1 (centres unmarked) [Compound 9, 3-(6-((1-(1-neopentylpiperidin-4-yl)-1H-pyrazol-4-yl)methyl)-2-oxobenzo[cd]indol-1(2H)-yl)piperidine-2,6-dione]",29.7 pM,
Nc1cccc2c1CN(C1CCC(=O)NC1=O)C2=O (centres unmarked) [lenalidomide],,median duration of response [DOR] [5]: 16.6 months; overall response rate [ORR] [5]: 28%
"CC1(CN2CCC(C)(n3cc(Cc4ccc5c6c(cccc46)C(=O)N5C4CCC(=O)NC4=O)cn3)CC2)CC1 (centres unmarked) [Compound 8, 3-(6-((1-(4-methyl-1-((1-methylcyclopropyl)methyl)piperidin-4-yl)-1H-pyrazol-4-yl)methyl)-2-oxobenzo[cd]indol-1(2H)-yl)piperidine-2,6-dione]",138 pM,
"O=C1CCC(N2C(=O)c3cccc4c(Cc5ccc(CN6CCOCC6)cc5)ccc2c34)C(=O)N1 (centres unmarked) [Compound 5, 3-(6-(4-(morpholinomethyl)benzyl)-2-oxobenzo[cd]indol-1(2H)-yl)piperidine-2,6-dione]",49.8 pM,
"CC1(CN2CCC(n3cc(Cc4ccc5c6c(cccc46)C(=O)N5C4CCC(=O)NC4=O)cn3)CC2)CCC1 (centres unmarked) [Compound 2, 3-(6-((1-(1-((1-methylcyclobutyl)methyl)piperidin-4-yl)-1H-pyrazol-4-yl)methyl)-2-oxobenzo[cd]indol-1(2H)-yl)piperidine-2,6-dione]",9.33 pM,
"CC(C)(C)C(=O)N1CCC(C)(n2cc(Cc3ccc4c5c(cccc35)C(=O)N4C3CCC(=O)NC3=O)cn2)CC1 (centres unmarked) [Compound 11, 3-(6-((1-(4-methyl-1-pivaloylpiperidin-4-yl)-1H-pyrazol-4-yl)methyl)-2-oxobenzo[cd]indol-1(2H)-yl)piperidine-2,6-dione]",27.2 pM,
"C=CC(=O)N1CCC[C@@H](n2nc(-c3ccc(Oc4ccccc4)cc3)c3c(N)ncnc32)C1 [Ibrutinib, 1-[(3R)-3-[4-amino-3-(4-phenoxy-phenyl)pyrazolo[3,4-d]pyrimidin-1-yl]piperidin-1-yl]prop-2-en-1-one, reference compound]",,Median Survival [6]: 28
